Results published in ChEMBL document CHEMBL1201862, “PubChem BioAssay data set” (2004).
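Briefly, cells in 96-well plates were exposed to five compound concentrations for 48 h, and endpoints were estimated by linear interpolation. GI50 is the concentration that inhibits growth by half.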 Active and inactive are the calls of the source. Rule as the data show it: active = GI50 up to about 1.1 µM and inactive = higher.

Columns and labels:
Assay in all cases: growth of human tumour cells (NCI), 48 h
SW-620 = test system: SW-620
UO-31 = test system: UO-31
IGROV-1 = test system: IGROV-1
ACHN = test system: ACHN
A549 = test system: A549
MDA-MB-435 = test system: MDA-MB-435
LOX IMVI = test system: LOX IMVI
SNB-19 = test system: SNB-19
SR = test system: SR
RPMI-8226 = test system: RPMI-8226
SF-539 = test system: SF-539
MCF7 = test system: MCF7
HOP-62 = test system: HOP-62
MDA-N = test system: MDA-N
CCRF-CEM = test system: CCRF-CEM
HCT-15 = test system: HCT-15
TK-10 = test system: TK-10
COLO 205 = test system: COLO 205
SN12C = test system: SN12C

## COCC1OCCN1C (configuration not stated)
SW-620
  GI50: > 100 µM (inactive)
UO-31
  GI50: > 100 µM (inactive)
IGROV-1
  GI50: > 100 µM (inactive)
ACHN
  GI50: > 100 µM (inactive)
A549
  GI50: > 100 µM (inactive)
MDA-MB-435
  GI50: > 100 µM (inactive)
LOX IMVI
  GI50: > 100 µM (inactive)
SNB-19
  GI50: > 100 µM (inactive)
SR
  GI50: > 100 µM (inactive)
RPMI-8226
  GI50: > 100 µM (inactive)
SF-539
  GI50: > 100 µM (inactive)
MCF7
  GI50: > 100 µM (inactive)
HOP-62
  GI50: > 100 µM (inactive)
MDA-N
  GI50: > 100 µM (inactive)
CCRF-CEM
  GI50: > 100 µM (inactive)
HCT-15
  GI50: > 100 µM
TK-10
  GI50: > 100 µM (inactive)
COLO 205
  GI50: > 100 µM (inactive)

## CN(C)CCCN1C(=S)N(CCCN(C)C)c2c3cc(O)ccc3nc3c([N+](=O)[O-])ccc1c23
SW-620
  GI50: 1.96 µM (inactive)
UO-31
  GI50: 2.87 µM (inactive)
IGROV-1
  GI50: 0.7 µM (active)
ACHN
  GI50: 0.703 µM (active)
SN12C
  GI50: 2.65 µM (inactive)
A549
  GI50: 0.743 µM (active)
MDA-MB-435
  GI50: 4.2 µM (inactive)
LOX IMVI
  GI50: 1.26 µM (inactive)
SNB-19
  GI50: 2.06 µM (inactive)
SR
  GI50: 0.278 µM (active)
RPMI-8226
  GI50: 4.46 µM (inactive)
SF-539
  GI50: 1.29 µM (inactive)
MCF7
  GI50: 0.902 µM (active)
HOP-62
  GI50: 2.61 µM (inactive)
MDA-N
  GI50: 3.42 µM (inactive)
CCRF-CEM
  GI50: 1.18 µM (inactive)
HCT-15
  GI50: 1.87 µM
TK-10
  GI50: 11.5 µM (inactive)
COLO 205
  GI50: 1.12 µM (inactive)

## CCOC(=O)Nc1c(C#N)[n+]([O-])c2cc(Cl)c(Cl)cc2[n+]1[O-]
SW-620
  GI50: 13.1 µM (inactive)
UO-31
  GI50: 16.6 µM (inactive)
IGROV-1
  GI50: 13.1 µM (inactive)
SN12C
  GI50: 16.4 µM (inactive)
A549
  GI50: 22 µM (inactive)
MDA-MB-435
  GI50: 16.4 µM (inactive)
LOX IMVI
  GI50: 6.1 µM (inactive)
SNB-19
  GI50: 21.7 µM (inactive)
SR
  GI50: 4.09 µM (inactive)
RPMI-8226
  GI50: 2.15 µM (inactive)
SF-539
  GI50: 12.9 µM (inactive)
MCF7
  GI50: 16.7 µM (inactive)
HOP-62
  GI50: 45.7 µM (inactive)
MDA-N
  GI50: 16.1 µM (inactive)
CCRF-CEM
  GI50: 4.37 µM (inactive)
HCT-15
  GI50: 5.13 µM
TK-10
  GI50: 27.5 µM (inactive)
COLO 205
  GI50: 15 µM (inactive)

## CC(=O)OCC(OC(C)=O)C(OC(C)=O)C(OC(C)=O)C(C=NN(C(C)=O)S(=O)(=O)c1ccc(/C=C2\NC(=O)N(C)C2=O)cc1)OC(C)=O (configuration not stated)
SW-620
  GI50: 34.4 µM (inactive)
UO-31
  GI50: 57.5 µM (inactive)
IGROV-1
  GI50: 31.6 µM (inactive)
ACHN
  GI50: 34.5 µM (inactive)
SN12C
  GI50: 27.8 µM (inactive)
A549
  GI50: 56 µM (inactive)
MDA-MB-435
  GI50: 36.3 µM (inactive)
LOX IMVI
  GI50: 21.8 µM (inactive)
SNB-19
  GI50: 45 µM (inactive)
SR
  GI50: 23.4 µM (inactive)
RPMI-8226
  GI50: 24.2 µM (inactive)
MCF7
  GI50: 40.1 µM (inactive)
HOP-62
  GI50: 85.1 µM (inactive)
MDA-N
  GI50: 35.7 µM (inactive)
CCRF-CEM
  GI50: 13 µM (inactive)
HCT-15
  GI50: 25.4 µM
TK-10
  GI50: 3.35 µM (inactive)
COLO 205
  GI50: 26.2 µM (inactive)

## CCOC(=O)/C(C#N)=C/c1ccc(CO)o1
SW-620
  GI50: > 100 µM (inactive)
IGROV-1
  GI50: > 100 µM (inactive)
ACHN
  GI50: > 100 µM (inactive)
SN12C
  GI50: > 100 µM (inactive)
A549
  GI50: > 100 µM (inactive)
MDA-MB-435
  GI50: > 100 µM (inactive)
LOX IMVI
  GI50: > 100 µM (inactive)
SNB-19
  GI50: > 100 µM (inactive)
SR
  GI50: > 100 µM (inactive)
RPMI-8226
  GI50: > 100 µM (inactive)
SF-539
  GI50: > 100 µM (inactive)
MCF7
  GI50: > 100 µM (inactive)
HOP-62
  GI50: > 100 µM (inactive)
MDA-N
  GI50: > 100 µM (inactive)
HCT-15
  GI50: > 100 µM
TK-10
  GI50: > 100 µM (inactive)
COLO 205
  GI50: > 100 µM (inactive)

## O=c1c2ccccc2nc(N/N=C/c2ccc([N+](=O)[O-])cc2)n1-c1ccccc1
UO-31
  GI50: > 100 µM (inactive)
IGROV-1
  GI50: > 100 µM (inactive)
ACHN
  GI50: 13.3 µM (inactive)
SN12C
  GI50: 91 µM (inactive)
A549
  GI50: 15.6 µM (inactive)
MDA-MB-435
  GI50: 42.4 µM (inactive)
LOX IMVI
  GI50: 3.08 µM (inactive)
SNB-19
  GI50: 20.7 µM (inactive)
SR
  GI50: > 100 µM (inactive)
RPMI-8226
  GI50: > 100 µM (inactive)
MCF7
  GI50: 20.9 µM (inactive)
HOP-62
  GI50: 13.3 µM (inactive)
MDA-N
  GI50: 57.5 µM (inactive)
CCRF-CEM
  GI50: > 100 µM (inactive)
HCT-15
  GI50: > 100 µM
TK-10
  GI50: 18 µM (inactive)
COLO 205
  GI50: > 100 µM (inactive)

## NS(=O)(=O)c1nnc(NC(=O)/C=C/C(=O)O)s1
SW-620
  GI50: > 100 µM (inactive)
UO-31
  GI50: > 100 µM (inactive)
ACHN
  GI50: > 100 µM (inactive)
SN12C
  GI50: > 100 µM (inactive)
A549
  GI50: > 100 µM (inactive)
MDA-MB-435
  GI50: > 100 µM (inactive)
LOX IMVI
  GI50: > 100 µM (inactive)
SNB-19
  GI50: > 100 µM (inactive)
SR
  GI50: > 100 µM (inactive)
RPMI-8226
  GI50: > 100 µM (inactive)
SF-539
  GI50: > 100 µM (inactive)
MCF7
  GI50: > 100 µM (inactive)
HOP-62
  GI50: > 100 µM (inactive)
MDA-N
  GI50: > 100 µM (inactive)
HCT-15
  GI50: > 100 µM
TK-10
  GI50: > 100 µM (inactive)
COLO 205
  GI50: > 100 µM (inactive)

## CC1(C)C2CCC3=C(CCC4(C)C5C[C@](C)(C(=O)O)CC[C@]5(C)CC[C@]34C)[C@@]2(C)CC[C@@H]1O (some centres not stated)
SW-620
  GI50: 16.6 µM (inactive)
UO-31
  GI50: 29.4 µM (inactive)
IGROV-1
  GI50: 24.2 µM (inactive)
ACHN
  GI50: 12.1 µM (inactive)
A549
  GI50: 13.1 µM (inactive)
MDA-MB-435
  GI50: 23.7 µM (inactive)
LOX IMVI
  GI50: 14.8 µM (inactive)
SNB-19
  GI50: > 10 µM (inactive)
SR
  GI50: 30.8 µM (inactive)
RPMI-8226
  GI50: 20.9 µM (inactive)
SF-539
  GI50: 37.3 µM (inactive)
MCF7
  GI50: 19.9 µM (inactive)
HOP-62
  GI50: 17 µM (inactive)
MDA-N
  GI50: 18.8 µM (inactive)
CCRF-CEM
  GI50: 14.9 µM (inactive)
HCT-15
  GI50: 16.5 µM
TK-10
  GI50: 17.8 µM (inactive)
COLO 205
  GI50: 38.3 µM (inactive)
